In patent US9732091B2, “Tryptophanol-derived oxazoloisoindolinones: small-molecule P53 activators” (UNIVERSIDADE DO PORTO, priority 2013, dated 2017):
“Also recorded” adds a separate entry of the source.

What was measured:
HCT116 p53^+/+ = experiment: Western blot of p53 and p53-target proteins, PARP cleavage, HCT116 p53^+/+; format: cell-based, human
Description: (§1) FIG. 2 illustrates that SLMP53-1 increases the levels of proteins encoded by p53 target genes (MDM2, p21, PUMA and BAX), and leads to PARP cleavage in colon carcinoma cells with wt p53 (HCT116 p53^+/+), but not in colon carcinoma cells without wt p53 (HCT116 p53^−/−). Western blot analysis was performed for human colon carcinoma cells after 16 (B, D, E) and 24 (A, C, F) hours treatment with 15.5 μM of SLMP53-1, 135 nM doxorubicin (DOXO; positive control) or DMSO only. The protein expression levels were evaluated by quantification of Western Blot band intensity (with Bio-Profile Bio-1D++ software) using GAPDH as loading control.

HCT116 p53^+/+ cells = experiment: apoptosis by flow cytometry (FITC-Annexin V and propidium iodide), HCT116 p53^+/+; format: cell-based, human; conditions: GI50 and double GI50, 24 hours
Description: (§2) Apoptosis was analyzed by flow cytometry using FITC-Annexin V and propidium iodide. The effect of compounds was analyzed after 24 hours treatment using the concentration of GI50 and double GI50. Histograms represent one of two independent experiments; quantification of cells in apoptosis represents the mean±S.E.M. of two independent experiments.

human wt p53 = molecular target: T1, human wt p53 (Homo sapiens, UniProt P04637); experiment: yeast-based assay, yeast cells expressing human wt p53 (growth by CFU counts, cell cycle, actin Western blot)
T1 construct: expressed in transfected cells
Description: FIG. 1 illustrates that SLMP53-1 and SLMP53-2 increase the p53 effects in yeast. Yeast cells expressing human wt p53 and transformed with the empty vector (control yeast) were incubated in selective induction medium in the presence of 0.1-25 μM compound or DMSO only, for 42 hours. (A) Effect of 10 μM SLMP53-1 and SLMP53-2 on the p53-induced yeast growth inhibition. Results are plotted setting as one unit the p53-induced growth inhibition in the presence of DMSO only. Growth was estimated by colony-forming unit (CFU) counts. […] (B) Dose-response curve for SLMP53-1 in yeast cells expressing human p53 and control yeast. Cells were incubated in selective medium with 0.1-25 μM of SLMP53-1 or DMSO only. Results are plotted setting as 100% growth inhibition the number of CFU obtained in the presence of DMSO only. Data are mean±S.E.M. of three independent experiments (*P<0.05; unpaired Student's t-test). (C) Effect of SLMP53-1 and SLMP53-2 on p53-induced S-phase cell cycle arrest in yeast. Cell cycle phases were analyzed by flow cytometry using Sytox Green and quantified using ModFit LT software; quantification of cell cycle phases represent the mean values. (D) Increase of p53-induced actin protein expression levels by SLMP53-1 and SLMP53-2 in yeast expressing p53. Western Blot band intensity was quantified using Pgk1p as loading control (with Bio-Profile Bio-1D++ software).
Using a yeast-based screening approach, the chiral compounds SLMP53-1 and SLMP53-2 were identified as potential activators of wt p53, from a chemical library of tryptophanol-derived oxazoloisoindolinones with general formula (I) shown in FIG. 1, wherein X, R^1, R^2, R^3, R^4, R^5, R^6, R^7, R^8, R^9 and R^10 are as defined herein, as well as their stereoisomers, enantiomers, ra.cemates, tautomers thereof or mixtures thereof; or a pharmaceutically acceptable salt, solvate or prodrug thereof. In the yeast cell model, compounds SLMP53-1 and SLMP53-2 increased the previously reported (Coutinho et al. FEBS Lett. 2009, 583, 3582-3588) p53-induced growth inhibition (FIGS. 1A and B) and S-phase cell cycle arrest (FIG. 1C).

HCT116 p53^−/− = experiment: Western blot of p53-target proteins, PARP cleavage, HCT116 p53^−/−; format: cell-based, human; conditions: 15.5 μM
Description: as §1

human lymphocytes = experiment: cytokinesis-block micronucleus assay; format: cell-based
Description: Concerning the genotoxicity assays, three concentrations (15.5, 7.25 and 1.55 μM) of SLMP53-1 were tested, in vitro, for potential genotoxicity to human lymphocytes. For that purpose, the cytokinesis-block micronucleus assay (an assay routinely used in mutagen/carcinogen screening programs) was used, which measures the ability of genotoxic agents to induce both chromosomal damage (clastogenic) and/or spindle dysfunction (aneugenic) effects.

mutant p53 R175H = molecular target: T2, mutant p53 R175H (Homo sapiens, UniProt P04637, R175H); experiment: reactivation of mutant p53 in yeast (growth, CFU), R175H; format: cell-based; conditions: 10 μM; yeast expressing R175H; 44 hours
T2 construct: expressed in transfected cells
Description: FIG. 6 illustrates that SLMP53-1 reactivates mutant p53s R273H, R175H and R280K in yeast. Yeast cells expressing R273H, R280K, Y220C or R175H were incubated in selective medium with 10 μM of SLMP53-1, 10 μM of CP-31398 (for R273H), 10 μM of PRIMA-1 (for R175H and R280K), 50 μM of PhiKan 083 (for Y220C) or DMSO only, for 44 hours. CP-31398, PRIMA-1 and PhiKan 083 were used as positive controls. Results are plotted setting as 100% growth the number of CFU obtained in the presence of DMSO only.
It is also shown that SLMP53-1 can reactivate some mutant p53 forms, particularly R273H, R280K and R175H (FIG. 6).

HCT116 p53^+/+ tumors = experiment: xenograft mouse model, HCT116 p53^+/+ tumors; format: in vivo, BALB/c mice; conditions: four intraperitoneal injections of 50 mg/kg, vs vehicle, preliminary
Description: FIG. 10 illustrates the antitumor activity of SLMP53-1 in vivo. BALB/c mice, 4-6 weeks old, were implanted subcutaneous xenografts using 1.5×10^6 HCT116 p53^+/+ or HCT116 p53^−/− cells. The treatment was initiated when palpable tumors were established (14 days after the cells were injected), and consisted in 4 intraperitoneal injections (2× per week) of vehicle (control) or 50 mg/kg of SLMP53-1. Xenografts were measured during 24 days. Relative tumor volumes were plotted for control and treated groups by dividing the average tumor volume for each data point by average starting tumor volume.
Currently, the toxicity and antitumor activity of SLMP53-1 are under study in vivo using xenograft mouse models. […] Because p53-null tumors were not suppressed, it was confirmed that SLMP53-1 inhibited the tumor growth in a wt p53-dependent manner.

MDA-MB-231 cells = experiment: apoptosis by flow cytometry (FITC-Annexin V and propidium iodide), MDA-MB-231; format: cell-based, human; conditions: GI50, 24 hours
Description: as §2, with “of” for “of GI50 and double”

With `C[C@]12OC[C@H](Cc3c[nH]c4ccccc34)N1C(=O)c1ccccc12` [SLMP53-1] the “protein levels of p53 and of MDM2, p21, PUMA and BAX” value (HCT116 p53^+/+; 15.5 μM (GI50), 16 and 24 hours) was “increased”, the PARP cleavage (HCT116 p53^+/+; 24 hours) was “led to PARP cleavage” and the apoptosis (HCT116 p53^+/+ cells) was “induces early and late apoptosis; also recorded: apoptotic cell death”. For the same compound, the p53-induced growth inhibition (human wt p53; yeast expressing human wt p53, 10 μM, 42 hours, vs DMSO only) was “increased”, the “p53-induced S-phase cell cycle arrest” value (human wt p53; yeast expressing human wt p53, flow cytometry) was “increased” and the actin protein levels (human wt p53; yeast expressing p53, Western blot, vs DMSO only) was “increased the actin protein levels”. The PARP cleavage (HCT116 p53^−/−) was “did not induce PARP cleavage”, the “expression levels of MDM2, p21, PUMA and Bax” value (HCT116 p53^−/−) was “did not interfere” and the “cytotoxic and genotoxic effects” value (human lymphocytes) was “no cytotoxic and genotoxic effects were observed”. The “mutagenic potential (micronuclei frequency vs negative control)” value (human lymphocytes; 15.5, 7.25 and 1.55 μM, human lymphocytes, in vitro) was “does not possess mutagenic potential”, the yeast growth inhibition (mutant p53 R175H) was “significant growth inhibition” and the tumor growth (HCT116 p53^+/+ tumors) was “considerably suppressed”. For the same compound, the apoptosis (MDA-MB-231 cells) was “induces late apoptosis; also recorded: apoptotic cell death”.
